Values joined by “and” are separate entries in the source; they are usually repeats but may differ in a detail not shown here. Equal entries are not always repeated.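 These data come from cells grown in 96-well plates and exposed to compound for 48 hours at five concentrations. GI50 marks 50% less growth. TGI: total growth inhibition.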

Test systems include CCRF-CEM leukemia; IGROV1 ovarian; OVCAR-3 ovarian; A549 NSCLC; SNB-75 CNS; HCT-116 colon; SK-MEL-28 melanoma; NCI-H226 lung; UO-31 renal; RPMI-8226 leukemia; SF-295 CNS; HOP-62 NSCLC; MCF7 breast; OVCAR-4 ovarian; HL-60(TB) leukemia.
Common to all, as to assay: DTP human tumour cell line panel, 48 h

Broadly, the TGI is the concentration at which net growth stops. `OCC#CCNCl`: the TGI with CCRF-CEM leukemia, in the test on IGROV1 ovarian, in the test with OVCAR-3 ovarian, in the test on A549 NSCLC, with SNB-75 CNS and in the test on HCT-116 colon was greater than 100 µM each time. Further, the concentration for total growth inhibition (TGI) with SK-MEL-28 melanoma, with NCI-H226 lung, in the test on UO-31 renal, in the test with RPMI-8226 leukemia, in the test on SF-295 CNS and with HOP-62 NSCLC was greater than 100 µM in each case. The TGI in the test with MCF7 breast, with OVCAR-4 ovarian and with HL-60(TB) leukemia was greater than 100 µM in each case.

Take `O=[N+]([O-])C(=C/c1ccccc1)/C(=C\c1ccccc1)[N+](=O)[O-]`: the TGI with CCRF-CEM leukemia amounted to 7.69 µM; in the test on IGROV1 ovarian, 33.4 µM; in the test with OVCAR-3 ovarian, 45.3 µM; in the test on A549 NSCLC, 78.8 µM; in the test with SNB-75 CNS, 37 µM; in the test with HCT-116 colon it was 31.7 µM. In addition, the TGI was determined as 31.2 µM in the test on SK-MEL-28 melanoma; 47.3 µM in the test with NCI-H226 lung; 31.3 µM in the test with UO-31 renal; 48.4 µM in the test on RPMI-8226 leukemia; 36.2 µM in the test with SF-295 CNS; 40 µM in the test on HOP-62 NSCLC. For the same compound, the results for the total growth inhibition concentration (TGI) in the test on MCF7 breast and in the test on OVCAR-4 ovarian were 34.4 µM and 38.1 µM, respectively.

In the case of `CCNC(=O)C(C)C1CCC2(C)C=CC(=O)C(C)=C2C1O` (stereo not drawn), the TGI with CCRF-CEM leukemia, with IGROV1 ovarian, with OVCAR-3 ovarian, with A549 NSCLC, in the test on SNB-75 CNS and with HCT-116 colon was greater than 100 µM throughout. For the same compound, the concentration for total growth inhibition (TGI) in the test on SK-MEL-28 melanoma, in the test with NCI-H226 lung, in the test with UO-31 renal, with RPMI-8226 leukemia, in the test on SF-295 CNS and in the test on HOP-62 NSCLC was greater than 100 µM throughout. For the same compound, the TGI in the test with MCF7 breast, in the test with OVCAR-4 ovarian and in the test on HL-60(TB) leukemia was greater than 100 µM throughout.

With `CN(C)CCNc1ccc2ncn3c4ccccc4c(=O)c1c23`, the concentration for total growth inhibition (TGI) in the test on CCRF-CEM leukemia was greater than 100 µM; in the test with IGROV1 ovarian, 11.9 µM; in the test on OVCAR-3 ovarian it was greater than 100 µM; with A549 NSCLC, 5.79 µM; in the test on SNB-75 CNS, 16 µM; with HCT-116 colon, 12 µM. In addition, the total growth inhibition concentration (TGI) is 15.2 µM in the test with SK-MEL-28 melanoma; 6.05 µM with NCI-H226 lung; 17.5 µM in the test on UO-31 renal; greater than 100 µM in the test on RPMI-8226 leukemia; 13.4 µM in the test with SF-295 CNS; 19.4 µM in the test with HOP-62 NSCLC. Moreover, the TGI with OVCAR-4 ovarian was 5 µM; in the test on HL-60(TB) leukemia, greater than 100 µM.

Consider `O=C1OC(c2ccccc2)=NC1c1ccccc1` (stereo not drawn), for which the TGI in the test with CCRF-CEM leukemia, in the test with IGROV1 ovarian, in the test with OVCAR-3 ovarian, in the test on A549 NSCLC, in the test with SNB-75 CNS and in the test on HCT-116 colon was greater than 100 µM each time. Besides, the concentration for total growth inhibition (TGI) with SK-MEL-28 melanoma, with NCI-H226 lung, in the test on UO-31 renal, in the test with RPMI-8226 leukemia, with SF-295 CNS and with HOP-62 NSCLC was greater than 100 µM in each case. In addition, the TGI in the test on MCF7 breast, with OVCAR-4 ovarian and in the test on HL-60(TB) leukemia was greater than 100 µM each time.

One may read the GI50 as the concentration that inhibits growth by half. As for `COc1ccccc1/C=C(/C)[N+](=O)[O-]`, the TGI in the test with CCRF-CEM leukemia is 13 µM and > 100 µM; with IGROV1 ovarian, 5.18 µM and 3.72 µM; with OVCAR-3 ovarian, 3.15 µM and 2.68 µM; in the test on A549 NSCLC, 8.66 µM and 5.18 µM; in the test on SNB-75 CNS, > 100 µM and 54.7 µM; with SK-MEL-28 melanoma it was 5.64 µM and 4.97 µM. Also, the TGI is 4.22 µM and 3.64 µM in the test with NCI-H226 lung; 3.36 µM and 3.39 µM in the test on UO-31 renal; 20 µM and 6.33 µM in the test with SF-295 CNS; greater than 100 µM in the test on HOP-62 NSCLC; greater than 100 µM in the test with MCF7 breast; 23.6 µM and 14.8 µM in the test on OVCAR-4 ovarian. Further, the concentration for total growth inhibition (TGI) in the test on HL-60(TB) leukemia was 4.21 µM and 5.4 µM. The GI50 in the test with SNB-75 CNS is 14.1 µM and 6.99 µM; with HCT-116 colon it was 5.36 µM and 2.35 µM; in the test on RPMI-8226 leukemia, 0.282 µM and 0.608 µM; in the test on SF-295 CNS it was 5.31 µM and 2.53 µM; in the test on MCF7 breast it was 0.593 µM.

In the case of `FC(F)(F)c1ccc2c(c1)N(CCCNCCN1CCOCC1)c1ccccc1S2`, the TGI with CCRF-CEM leukemia worked out at 30.4 µM; in the test with IGROV1 ovarian, 33.5 µM; in the test with OVCAR-3 ovarian, 24.8 µM; in the test on A549 NSCLC, 28.3 µM; in the test with SNB-75 CNS, 20.9 µM; in the test with HCT-116 colon, 11.2 µM. The TGI came out at 17.3 µM in the test on SK-MEL-28 melanoma; 17.5 µM with UO-31 renal; 28.9 µM in the test on RPMI-8226 leukemia; 27.4 µM in the test on SF-295 CNS; 27.1 µM with HOP-62 NSCLC; 22.2 µM in the test with HL-60(TB) leukemia.

Take `CC(C)=CCCC(C)(OC1OC(CO)C(O)C(O)C1O)C1CCC2(C)C1C(O)CC1C3(C)CCC(O)C(C)(C)C3C(OC3OC(CO)C(O)C(O)C3OC3OC(C)C(O)C(O)C3O)CC12C` (stereo not drawn) (tested in a mixture with another compound): the TGI with CCRF-CEM leukemia, in the test on IGROV1 ovarian, in the test with OVCAR-3 ovarian, with A549 NSCLC, with SNB-75 CNS and with HCT-116 colon was greater than 75 µM each time. In addition, the TGI with SK-MEL-28 melanoma, in the test with NCI-H226 lung, in the test with UO-31 renal, in the test with RPMI-8226 leukemia, in the test on SF-295 CNS and with HOP-62 NSCLC was greater than 75 µM in each case. Further, the TGI in the test with MCF7 breast, in the test with OVCAR-4 ovarian and in the test on HL-60(TB) leukemia was greater than 75 µM each time.

On to `O=C(NN1C(=O)C(Cl)C1c1ccccc1O)c1ccccc1O` (stereo not drawn), for which the TGI was 70.6 µM with CCRF-CEM leukemia; greater than 100 µM in the test with IGROV1 ovarian; greater than 100 µM in the test with OVCAR-3 ovarian; greater than 100 µM in the test on A549 NSCLC; greater than 100 µM with SNB-75 CNS; greater than 100 µM with HCT-116 colon. For the same compound, the total growth inhibition concentration (TGI) with SK-MEL-28 melanoma was greater than 100 µM; in the test on UO-31 renal, 63.8 µM; with RPMI-8226 leukemia it was greater than 100 µM; in the test with SF-295 CNS it was greater than 100 µM; in the test with HOP-62 NSCLC, greater than 100 µM; with OVCAR-4 ovarian it was greater than 100 µM. Also, the TGI in the test on HL-60(TB) leukemia worked out at 43.3 µM.

For `CCOC(=O)Cc1cc(OC)c(OC)cc1/C(Cl)=C(\CO)c1ccc(OC)c(OC)c1`, the TGI is greater than 100 µM in the test on CCRF-CEM leukemia; greater than 100 µM in the test on IGROV1 ovarian; greater than 100 µM in the test on OVCAR-3 ovarian; greater than 100 µM in the test on A549 NSCLC; 54 µM in the test on SNB-75 CNS; greater than 100 µM with HCT-116 colon. Moreover, the concentration for total growth inhibition (TGI) in the test on SK-MEL-28 melanoma, in the test with UO-31 renal, in the test with RPMI-8226 leukemia, in the test with SF-295 CNS, in the test on OVCAR-4 ovarian and in the test with HL-60(TB) leukemia was greater than 100 µM each time.

For the origin of these results see PubChem BioAssay (NCI).
